Key:
Format in all cases: in vivo
[1] = tested on: giant foxtail (Setaria faberi); assay: Preemergence herbicidal activity; details: scored after 3 weeks, 0 no injury, 100 complete kill or no germination
Experimental: (§1) The soil matrix was contained in plastic pots with a surface area of 161 square centimeters. When required to ensure good germination and healthy plants, a fungicide treatment and/or other chemical or physical treatment was applied. A weighed amount, determined by the highest rate to be tested, of each test compound was placed in a 20 mL glass vial and was dissolved in 8 mL of a 97:3 v/v (volume/volume) mixture of acetone and dimethyl sulfoxide to obtain concentrated stock solutions. […] The stock solutions obtained were diluted with a 99.9:0.1 mixture of water and Tween® 155 surfactant (ethoxylated sorbitan fatty acid ester) to obtain application solutions of known concentration. The solutions containing the highest concentration to be tested were prepared by diluting 4 mL aliquots of the stock solution with 8.5 mL of the mixture and lower concentrations were prepared by dilution of appropriate smaller portions of the stock solution. A 2.5 mL aliquot of each solution of known concentration was sprayed evenly onto the soil of each seeded pot using a Cornwall 5.0 mL glass syringe fitted with a TeeJet TN-3 hollow cone nozzle to obtain thorough coverage of the soil in each pot. Control pots were sprayed in the same manner with the aqueous mixture. A highest application rate of 4.48 kg/ha is achieved when 50 mg of test compound is employed. The treated pots and control pots were placed in a greenhouse with an approximately 15 hr photoperiod which was maintained at about 23-29° C. during the day and 22-28° C. during the night. Nutrients and water were added on a regular basis and supplemental lighting was provided with overhead metal halide 1000 Watt lamps as necessary. The water was added by top-irrigation. After 3 weeks the condition of the test plants that germinated and grew as compared with that of the untreated plants that germinated and grew was determined visually and scored on a scale of 0 to 100 percent where 0 corresponds to no injury and 100 corresponds to complete kill or no germination.

[2] = tested on: barnyardgrass (Echinochloa crus-galli); assay: Preemergence herbicidal activity; details: scored after 3 weeks, 0 no injury, 100 complete kill or no germination
Experimental: as §1

wild oats (Avena fatua) [3] = assay: Preemergence herbicidal activity; details: scored after 3 weeks, 0 no injury, 100 complete kill or no germination
Experimental: as §1

[4] = tested on: velvetleaf (Abutilion theophrasti); assay: Preemergence herbicidal activity; details: scored after 3 weeks, 0 no injury, 100 complete kill or no germination
Experimental: as §1

[5] = tested on: pigweed (Amaranthus retroflexus); assay: Preemergence herbicidal activity; details: scored after 3 weeks, 0 no injury, 100 complete kill or no germination
Experimental: as §1

[6] = tested on: blackgrass (Alopecurus myosuroides); assay: Preemergence herbicidal activity; details: scored after 3 weeks, 0 no injury, 100 complete kill or no germination
Experimental: as §1

[7] = tested on: morningglory (Ipomoea hederacea); assay: Preemergence herbicidal activity; details: scored after 3 weeks, 0 no injury, 100 complete kill or no germination
Experimental: as §1

[8] = tested on: Rox orange sorghum (Sorghum bicolor); assay: Preemergence herbicidal activity; details: scored after 3 weeks, 0 no injury, 100 complete kill or no germination
Experimental: as §1

[9] = tested on: crabgrass (Digitaria sanguinalis); assay: Preemergence herbicidal activity; details: scored after 3 weeks, 0 no injury, 100 complete kill or no germination
Experimental: as §1

[10] = tested on: cocklebur (Xanthium strumarium); assay: Preemergence herbicidal activity; details: scored after 3 weeks, 0 no injury, 100 complete kill or no germination
Experimental: as §1

[11] = tested on: wild poinsettia (Euphorbia heterophylla); assay: Preemergence herbicidal activity; details: scored after 3 weeks, 0 no injury, 100 complete kill or no germination
Experimental: as §1

[12] = tested on: giant foxtail (Setaria faberi); assay: Postemergence herbicidal activity; details: 31.3 ppm; scored after 2 weeks; 0 no injury, 100 complete kill
Experimental: (§2) Seeds of the desired test plant species were planted in Grace-Sierra MetroMix® 306 planting mixture, which typically has a pH of 6.0 to 6.8 and an organic matter content of about 30 percent, in plastic pots with a surface area of 64 square centimeters. When required to ensure good germination and healthy plants, a fungicide treatment and/or other chemical or physical treatment was applied. The plants were grown for 7-21 days in a greenhouse with an approximately 15 hr photoperiod which was maintained at about 23-29° C. during the day and 22-28° C. during the night. Nutrients and water were added on a regular basis and supplemental lighting was provided with overhead metal halide 1000 Watt lamps as necessary. The plants were employed for testing when they reached the first or second true leaf stage. A weighed amount of each test compound, determined by the highest rate to be tested, was placed in a 20 mL glass vial and was dissolved in 4 mL of a 97:3 v/v (volume/volume) mixture of acetone and dimethyl sulfoxide to obtain concentrated stock solutions. […] The concentrated stock solutions obtained were diluted with an aqueous mixture containing acetone, water, iso-propyl alcohol, dimethyl sulfoxide, Atplus 411F crop oil concentrate, and Triton X-155 surfactant (methylenebisdiamyl phenoxy polyethoxy ethanol) in a 48.5:39:10:1.5:1.0:0.02 v/v ratio to obtain spray solutions of known concentration. The solutions containing the highest concentration to be tested were prepared by diluting 2 mL aliquots of the stock solution with 13 mL of the mixture and lower concentrations were prepared by dilution of appropriate smaller portions of the stock solution. Approximately 1.5 mL aliquots of each solution of known concentration were sprayed evenly onto each of the test plant pots using a Devilbiss atomizer driven by compressed air pressure of 2 to 4 psi (140 to 280 kiloPascals) to obtain thorough coverage of each plant. Control plants were sprayed in the same manner with the aqueous mixture. In this test an application rate of 1 ppm results in the application of approximately 1 g/ha. The treated plants and control plants were placed in a greenhouse as described above and watered by sub-irrigation to prevent wash-off of the test compounds. After 2 weeks the condition of the test plants as compared with that of the untreated plants was determined visually and scored on a scale of 0 to 100 percent where 0 corresponds to no injury and 100 corresponds to complete kill.

[13] = tested on: chickweed (Stellaria media); assay: Postemergence herbicidal activity; details: 31.3 ppm; scored after 2 weeks; 0 no injury, 100 complete kill
Experimental: as §2

[14] = tested on: wild buckwheat (Polygonum convolvulus); assay: Postemergence herbicidal activity; details: 31.3 ppm; scored after 2 weeks; 0 no injury, 100 complete kill
Experimental: as §2

wild oats (Avena fatua) [15] = assay: Postemergence herbicidal activity; details: 31.3 ppm; scored after 2 weeks; 0 no injury, 100 complete kill
Experimental: as §2

[16] = tested on: velvetleaf (Abutilion theophrasti); assay: Postemergence herbicidal activity; details: 31.3 ppm; scored after 2 weeks; 0 no injury, 100 complete kill
Experimental: as §2

[17] = tested on: pigweed (Amaranthus retroflexus); assay: Postemergence herbicidal activity; details: 31.3 ppm; scored after 2 weeks; 0 no injury, 100 complete kill
Experimental: as §2

[18] = tested on: blackgrass (Alopecurus myosuroides); assay: Postemergence herbicidal activity; details: 31.3 ppm; scored after 2 weeks; 0 no injury, 100 complete kill
Experimental: as §2

[19] = tested on: morningglory (Ipomoea hederacea); assay: Postemergence herbicidal activity; details: 31.3 ppm; scored after 2 weeks; 0 no injury, 100 complete kill
Experimental: as §2

[20] = tested on: Rox orange sorghum (Sorghum bicolor); assay: Postemergence herbicidal activity; details: 31.3 ppm; scored after 2 weeks; 0 no injury, 100 complete kill
Experimental: as §2

viola (Viola tricolor) = assay: Postemergence herbicidal activity; details: 31.3 ppm; scored after 2 weeks; 0 no injury, 100 complete kill
Experimental: as §2

[21] = tested on: cocklebur (Xanthium strumarium); assay: Postemergence herbicidal activity; details: 31.3 ppm; scored after 2 weeks; 0 no injury, 100 complete kill
Experimental: as §2

[22] = tested on: lambsquarters (Chenopodium album); assay: Postemergence herbicidal activity; details: 31.3 ppm; scored after 2 weeks; 0 no injury, 100 complete kill
Experimental: as §2

[23] = tested on: lambsquarters (Chenopodium album); assay: Preemergence herbicidal activity; details: 17.5 g/Ha; scored after 3 weeks; 0 no injury, 100 complete kill or no germination
Experimental: as §1

## COc1cc(OC)n2nc(NS(=O)(=O)c3cc(C)ccc3OC)nc2n1 [Compound 6]
[1]; 35 g/Ha
  Preemergence herbicidal activity SETFA: 98%
[2]; 35 g/Ha
  Preemergence herbicidal activity ECHCG: 90%
Wild oats (Avena fatua) [3]; 35 g/Ha
  Preemergence herbicidal activity AVEFA: 90%
[4]; 35 g/Ha
  Preemergence herbicidal activity ABUTH: 98%
[5]; 35 g/Ha
  Preemergence herbicidal activity AMARE: 98%
[6]; 35 g/Ha
  Preemergence herbicidal activity ALOMY: 100%
[7]; 35 g/Ha
  Preemergence herbicidal activity IPOHE: 50%
[8]; 35 g/Ha
  Preemergence herbicidal activity SORBI: 95%
[9]; 35 g/Ha
  Preemergence herbicidal activity DIGSA: 100%
[10]; 35 g/Ha
  Preemergence herbicidal activity XANST: 70%
[11]; 35 g/Ha
  Preemergence herbicidal activity EPHHL: 80%
[12]
  Postemergence herbicidal activity SETFA: 95%
[13]
  Postemergence herbicidal activity STEME: 98%
[14]
  Postemergence herbicidal activity POLCO: 98%
Wild oats (Avena fatua) [15]
  Postemergence herbicidal activity AVEFA: 95%
[16]
  Postemergence herbicidal activity ABUTH: 95%
[17]
  Postemergence herbicidal activity AMARE: 100%
[18]
  Postemergence herbicidal activity ALOMY: 90%
[19]
  Postemergence herbicidal activity IPOHE: 70%
[20]
  Postemergence herbicidal activity SORBI: 95%
Viola (Viola tricolor)
  Postemergence herbicidal activity VIOTR: 90%
[21]
  Postemergence herbicidal activity XANST: 95%
[22]
  Postemergence herbicidal activity CHEAL: 95%

## COc1cc(OC)n2nc(NS(=O)(=O)c3c(OCC(F)F)cccc3C(F)(F)F)nc2n1 [Compound 8]
[1]; 17.5 g/Ha
  Preemergence herbicidal activity SETFA: 100%
[2]; 17.5 g/Ha
  Preemergence herbicidal activity ECHCG: 100%
Wild oats (Avena fatua) [3]; 17.5 g/Ha
  Preemergence herbicidal activity AVEFA: 30%
[4]; 17.5 g/Ha
  Preemergence herbicidal activity ABUTH: 85%
[5]; 17.5 g/Ha
  Preemergence herbicidal activity AMARE: 100%
[6]; 17.5 g/Ha
  Preemergence herbicidal activity ALOMY: 95%
[7]; 17.5 g/Ha
  Preemergence herbicidal activity IPOHE: 90%
[8]; 17.5 g/Ha
  Preemergence herbicidal activity SORBI: 95%
[9]; 17.5 g/Ha
  Preemergence herbicidal activity DIGSA: 85%
[10]; 17.5 g/Ha
  Preemergence herbicidal activity XANST: 80%
[23]
  Preemergence herbicidal activity CHEAL: 100%
[11]; 17.5 g/Ha
  Preemergence herbicidal activity EPHHL: 90%
[12]
  Postemergence herbicidal activity SETFA: 100%
[13]
  Postemergence herbicidal activity STEME: 98%
[14]
  Postemergence herbicidal activity POLCO: 98%
Wild oats (Avena fatua) [15]
  Postemergence herbicidal activity AVEFA: 60%
[16]
  Postemergence herbicidal activity ABUTH: 100%
[17]
  Postemergence herbicidal activity AMARE: 100%
[18]
  Postemergence herbicidal activity ALOMY: 80%
[19]
  Postemergence herbicidal activity IPOHE: 95%
[20]
  Postemergence herbicidal activity SORBI: 80%
Viola (Viola tricolor)
  Postemergence herbicidal activity VIOTR: 85%
[21]
  Postemergence herbicidal activity XANST: 100%

From patent US6559101B2, “N- (5, 7-dimethoxy [1, 2, 4] triazolo [1, 5-a] pyrimidin-2-yl) arylsulfonamide compounds and their use as herbicides” (Dow AgroSciences LLC, priority 2000, dated 2003)
